Results reported in PubChem BioAssay AID1963825 (Molecular Pharmacology Branch, DTP, NCI, 2024).

Experiment: Anticancer human tumor 997537-175-T-J1-PDC patient-derived colon adenocarcinoma cell line growth inhibition [POLQ]
Conditions: 997537-175-T-J1-PDC complex spheroid viability, combination with POLQ inhibitors; for IC50: curve of first compound; for viability, T/C: stronger effect = lower value
Procedure, shortened: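 Patient-derived tumour cells were co-cultured with HUVEC and mesenchymal stem cells as multicellular spheroids at 37 °C. They were treated with POLQ inhibitors (novobiocin, ART-558, RP6685) alone or combined with other agents. Top concentrations were at or near clinical Cmax (otherwise 10 microM; SN-38 at 1 microM), decreasing in half-log steps.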
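Note: luminescence signal used as a surrogate for viable cells; spheroids exposed to drugs for seven days before readout.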

CC(=O)O[C@H]1C(=O)[C@@]2(C)[C@H]([C@H](OC(=O)c3ccccc3)[C@]3(O)C[C@H](OC(=O)[C@H](O)[C@@H](NC(=O)c4ccccc4)c4ccccc4)C(C)=C1C3(C)C)[C@]1(OC(C)=O)CO[C@@H]1C[C@@H]2O + Cc1cccc(N(C)C(=O)C2C(O)CCN2c2nc(C)cc(C(F)(F)F)c2C#N)c1
IC50 (second compound 0.0316 µM): < 9.49 nM
IC50 (second compound 0.1 µM): < 9.49 nM
IC50 (second compound 0.316 µM): 32.2 nM
IC50 (second compound 1 µM): < 9.49 nM
IC50 (second compound 3.16 µM): 20.9 nM
IC50 (second compound 10 µM): < 9.49 nM
viability, T/C (second compound 0.0316 µM, first compound 0.00949 µM): 56%
viability, T/C (second compound 0.0316 µM, first compound 0.03 µM): 32.5%
viability, T/C (second compound 0.0316 µM, first compound 0.0949 µM): 16.2%
viability, T/C (second compound 0.0316 µM, first compound 0.3 µM): 20.3%
viability, T/C (second compound 0.0316 µM, first compound 0.949 µM): 35.2%
viability, T/C (second compound 0.0316 µM, first compound 3 µM): 41.5%
viability, T/C (second compound 0.1 µM, first compound 0.00949 µM): 53.7%
viability, T/C (second compound 0.1 µM, first compound 0.03 µM): 39%
viability, T/C (second compound 0.1 µM, first compound 0.0949 µM): 45.4%
viability, T/C (second compound 0.1 µM, first compound 0.3 µM): 32.4%
viability, T/C (second compound 0.1 µM, first compound 0.949 µM): 41.5%
viability, T/C (second compound 0.1 µM, first compound 3 µM): 35.5%
viability, T/C (second compound 0.316 µM, first compound 0.00949 µM): 54.1%
viability, T/C (second compound 0.316 µM, first compound 0.03 µM): 51.6%
viability, T/C (second compound 0.316 µM, first compound 0.0949 µM): 30.1%
viability, T/C (second compound 0.316 µM, first compound 0.3 µM): 29.8%
viability, T/C (second compound 0.316 µM, first compound 0.949 µM): 26.2%
viability, T/C (second compound 0.316 µM, first compound 3 µM): 20.3%
viability, T/C (second compound 1 µM, first compound 0.00949 µM): 41%
viability, T/C (second compound 1 µM, first compound 0.03 µM): 32.3%
viability, T/C (second compound 1 µM, first compound 0.0949 µM): 28.3%
viability, T/C (second compound 1 µM, first compound 0.3 µM): 39.7%
viability, T/C (second compound 1 µM, first compound 0.949 µM): 34.3%
viability, T/C (second compound 1 µM, first compound 3 µM): 31.9%
viability, T/C (second compound 3.16 µM, first compound 0.00949 µM): 79.5%
viability, T/C (second compound 3.16 µM, first compound 0.03 µM): 38.5%
viability, T/C (second compound 3.16 µM, first compound 0.0949 µM): 20.8%
viability, T/C (second compound 3.16 µM, first compound 0.3 µM): 40.2%
viability, T/C (second compound 3.16 µM, first compound 0.949 µM): 31.5%
viability, T/C (second compound 3.16 µM, first compound 3 µM): 34.2%
viability, T/C (second compound 10 µM, first compound 0.00949 µM): 48.1%
viability, T/C (second compound 10 µM, first compound 0.03 µM): 38.8%
viability, T/C (second compound 10 µM, first compound 0.0949 µM): 47.5%
viability, T/C (second compound 10 µM, first compound 0.3 µM): 30.6%
viability, T/C (second compound 10 µM, first compound 0.949 µM): 26.2%
viability, T/C (second compound 10 µM, first compound 3 µM): 53.9%
